Reference: ChEMBL document CHEMBL1201862, “PubChem BioAssay data set” (2004)
Activity calls are given as the source filed them.

Key:
[1] = molecular target: T1, Polyadenylate-binding protein 1 (Homo sapiens, UniProt P11940); test: PABP1 MLLE–PAM2 binding inhibitor potency, dose response, biochemical, fluorescence polarization, FITC-PAM2 peptide (AID 602259); type: functional; settings: read-out: IC50_Mean
[2] = molecular target: T1, Polyadenylate-binding protein 1; test: PABP1 MLLE–PAM2 interaction inhibitors, dose response, miRNA deadenylation inhibitor project, biochemical, fluorescence polarization, Cy5-PAM2 peptide, secondary (AID 602260); type: functional; settings: read-out: IC50_Mean
[3] = Luminescence Cell-Based Dose Retest to Confirm Inhibitors of Cancer Stem Cells. [Related pubchem assays (depositor defined):AID2717, AID2721]; type: functional; settings: Homo sapiens
[4] = molecular target: Heat shock protein HSP 90-alpha (Homo sapiens, UniProt P07900); type: functional, organism-based
[5] = molecular target: T2, Carboxy-terminal domain RNA polymerase II polypeptide A small phosphatase 1 (Homo sapiens, UniProt Q9GZU7); test: inhibitors of CTDSP1, concentration-response testing, biochemical assay, absorbance-based, actives from ultra-high-throughput screening (AID 540297); type: functional
T2 sequence (Q9GZU7 whole entry): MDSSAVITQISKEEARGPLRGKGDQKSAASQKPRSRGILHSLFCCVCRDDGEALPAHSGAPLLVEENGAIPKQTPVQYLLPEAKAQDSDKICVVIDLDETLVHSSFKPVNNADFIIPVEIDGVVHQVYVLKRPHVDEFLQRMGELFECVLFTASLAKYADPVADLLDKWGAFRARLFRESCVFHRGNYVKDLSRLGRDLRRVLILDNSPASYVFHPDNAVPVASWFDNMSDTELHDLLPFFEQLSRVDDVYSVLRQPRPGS

[6] = molecular target: T3, High affinity choline transporter 1 (Homo sapiens, UniProt Q9GZV3); test: CHT inhibitors, dose response, cell-based, 5-point CRC, membrane potential dye (AID 504840); type: functional
T3 sequence (Q9GZV3 whole entry): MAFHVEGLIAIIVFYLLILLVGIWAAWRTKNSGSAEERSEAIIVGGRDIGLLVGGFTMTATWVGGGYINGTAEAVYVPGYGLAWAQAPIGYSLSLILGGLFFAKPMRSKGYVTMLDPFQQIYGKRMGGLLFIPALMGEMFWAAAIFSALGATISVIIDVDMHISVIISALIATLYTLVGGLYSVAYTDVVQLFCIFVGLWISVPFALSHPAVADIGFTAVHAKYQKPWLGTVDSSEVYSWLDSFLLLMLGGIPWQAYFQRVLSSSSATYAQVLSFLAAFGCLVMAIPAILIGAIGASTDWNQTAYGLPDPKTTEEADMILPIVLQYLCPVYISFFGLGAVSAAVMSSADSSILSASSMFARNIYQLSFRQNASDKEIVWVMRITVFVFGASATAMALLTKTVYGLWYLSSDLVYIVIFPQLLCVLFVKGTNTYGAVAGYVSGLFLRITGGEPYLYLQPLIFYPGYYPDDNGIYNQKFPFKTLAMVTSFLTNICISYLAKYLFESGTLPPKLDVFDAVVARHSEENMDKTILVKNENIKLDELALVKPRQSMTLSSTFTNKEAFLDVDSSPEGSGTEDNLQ

[7] = system: BJ; test: cytotoxicity toward BJ-TERT-LT-ST fibroblasts, dose response, cell-based, RAS-independent, luminescence (AID 1935); type: functional; settings: Homo sapiens;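 further: BJ fibroblasts immortalized with TERT plus LT and ST oncogenes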
[8] = system: BJ; test: cytotoxicity toward BJ-TERT fibroblasts, dose response, cell-based, RAS-independent, luminescence (AID 1933); type: functional; settings: Homo sapiens
[9] = system: BJ; test: cells; type: functional, cell-based; settings: Homo sapiens
[10] = cytotoxicity toward DRD oncogenic fibroblasts, dose response, cell-based, non-viral oncogenic, luminescence (AID 1934); type: functional; settings: Homo sapiens
[11] = cytotoxicity in HEK-293T cells, dose response, cytotoxicity control for TCR NF-kB inhibitor project, luminescence, T-cell screen hits (AID 489026); type: functional, cell-based;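 further: cells exposed to compound about 14 hours before the viability readout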
[12] = system: BJ; test: cytotoxicity toward Ras-transformed BJeLR fibroblasts, dose response, cell-based, alamar blue fluorescence, cherrypicked samples (AID 2631); type: functional; settings: Homo sapiens;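 further: confirmatory dose-response assay in RAS-dependent BJ fibroblasts engineered with TERT, LT and ST, with cytotoxicity read by fluorescence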
[13] = Luminescence Cell-Based Dose Confirmation HTS to Identify Inhibitors of Platelet Dense Granule Release. [Related pubchem assays: 1663 (Primary HTS), 1678 (Summary of Project)]; type: functional
[14] = molecular target: Luciferin 4-monooxygenase (Photinus pyralis, UniProt P08659); test: firefly luciferase enzyme inhibitors, dose response, biochemical, luminescence (AID 1891)
Chain of Luciferin 4-monooxygenase (P08659 whole entry): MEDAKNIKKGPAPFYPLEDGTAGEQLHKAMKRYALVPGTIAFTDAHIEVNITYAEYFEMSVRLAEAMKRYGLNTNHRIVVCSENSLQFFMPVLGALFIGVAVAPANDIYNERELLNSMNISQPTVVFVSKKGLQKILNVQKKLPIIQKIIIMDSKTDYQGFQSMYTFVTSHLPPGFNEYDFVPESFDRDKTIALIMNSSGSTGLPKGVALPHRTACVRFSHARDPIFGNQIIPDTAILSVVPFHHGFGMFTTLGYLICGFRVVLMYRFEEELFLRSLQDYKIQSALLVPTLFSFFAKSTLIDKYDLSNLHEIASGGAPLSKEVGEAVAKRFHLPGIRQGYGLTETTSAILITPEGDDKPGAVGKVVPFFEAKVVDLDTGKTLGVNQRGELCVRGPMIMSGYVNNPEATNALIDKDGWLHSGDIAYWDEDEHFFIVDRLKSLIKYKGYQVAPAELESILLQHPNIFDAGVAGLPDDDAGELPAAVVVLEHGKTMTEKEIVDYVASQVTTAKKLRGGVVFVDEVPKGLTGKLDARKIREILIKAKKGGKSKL

T1 sequence (P11940 whole entry): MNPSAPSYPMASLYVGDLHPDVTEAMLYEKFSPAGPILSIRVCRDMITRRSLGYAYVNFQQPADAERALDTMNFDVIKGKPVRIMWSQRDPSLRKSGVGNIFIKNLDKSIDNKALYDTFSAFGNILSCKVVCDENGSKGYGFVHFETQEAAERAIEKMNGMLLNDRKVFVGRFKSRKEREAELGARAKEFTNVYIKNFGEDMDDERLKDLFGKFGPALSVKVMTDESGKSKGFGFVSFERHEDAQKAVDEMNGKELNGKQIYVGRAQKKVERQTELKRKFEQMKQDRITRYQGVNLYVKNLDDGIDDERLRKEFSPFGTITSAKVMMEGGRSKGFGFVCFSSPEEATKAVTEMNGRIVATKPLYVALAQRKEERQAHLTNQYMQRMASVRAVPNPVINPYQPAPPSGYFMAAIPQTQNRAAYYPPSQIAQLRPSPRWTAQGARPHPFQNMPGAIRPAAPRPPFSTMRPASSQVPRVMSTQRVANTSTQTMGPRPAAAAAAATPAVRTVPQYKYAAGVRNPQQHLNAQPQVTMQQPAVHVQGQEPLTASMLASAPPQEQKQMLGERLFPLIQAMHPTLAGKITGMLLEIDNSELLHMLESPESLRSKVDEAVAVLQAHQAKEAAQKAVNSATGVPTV

With CC1=C(C(=O)O)N2C(=O)C(NC(=O)c3ccc(F)cc3)C2SC1 (stereo unspecified) the IC50 [1] was > 66 µM (inactive) and the IC50 [2] was > 66 µM (inactive).
For CC(=O)c1ccc(OCCCC(=O)NC2=NCCS2)cc1, the IC50 [1] was > 66 µM (inactive) and the IC50 [2] was > 66 µM (inactive).
With O=C(NCCCSc1ccccc1)c1cc(Br)ccc1O the AC50 [3] was 3.38 µM (active) and the AC50 [4] was 4.6 µM (active).
With CC(=O)OC1C(=O)OCC23CCC4(C)OC4C2OC2CC(OC(=O)C=CC=CC(=O)OCCC1C)C3(C)C21CO1 (stereo unspecified) the AC50 [4] was 2.3 µM (active).
For CCOC(=O)C1=C(C)N=c2s/c(=C\c3ccc(C(=O)O)cc3)c(=O)n2C1c1ccc(OC)cc1OC (stereo unspecified), the IC50 [5] was 7.72 µM (active).
With CCc1ccccc1NC(=O)c1cccc(Oc2ccc([N+](=O)[O-])cc2Cl)c1 the AC50 [4] was 4.35 µM (active).
For O=C(c1ccc(COc2ccccc2[N+](=O)[O-])o1)N1CCCCCC1, the IC50 [6] was 12.6 µM (active).
With CN(Cc1ccccc1)C(=O)CN1CCN(C(c2ccccc2)c2ccccc2)CC1 the IC50 [6] was 11.5 µM (active).
In the case of Cc1cc(C)cc(NS(=O)(=O)c2ccc(-c3cnc(C4CC4)o3)cc2)c1, the EC50 [7] is reported as 0.521 µM (inconclusive), the EC50 [8] is reported as 0.346 µM (active) and the EC50 [9] is reported as 26.2 µM (active). The EC50 [10] was 0.525 µM (active), the IC50 [11] was > 80 µM (inactive) and the EC50 [12] was < 0.104 µM (active).
With CCCN1C(=O)SC(CC(=O)Nc2ccc(C)cc2)C1=O (stereo unspecified) the IC50 [1] was > 66 µM (inactive) and the IC50 [2] was > 66 µM (inactive).
With COc1cccc(-n2c(=S)sc3c(=O)n(-c4ccccc4OC)c(=S)[nH]c32)c1 the IC50 [1] was > 66 µM (inactive) and the IC50 [2] was > 66 µM (inactive).
In the case of CC(=O)c1c2c3c(c(Br)ccc3n(C)c1=O)C(=O)c1ccccc1-2, the IC50 [1] is reported as 37.5 µM (inactive), the IC50 [2] is reported as 45.8 µM (inactive) and the EC50 [13] is reported as > 112 µM (not active). The EC50 [14] was > 112 µM (not active).
For CCOC(=O)c1c(NC(=O)CCN2C(=O)c3cccc([N+](=O)[O-])c3C2=O)sc(C(=O)OC(C)C)c1C, the IC50 [6] was 12.6 µM (active).
